Assay results taken from patent US11311508B2, “Medicinal composition for preventing or treating secondary hyperparathyroidism under maintenance dialysis” (EA Pharma Co., Ltd., priority 2017, dated 2022).
Counter-ions that a name gives are not always drawn.

Key:
normal rats = assay: PK/PD analysis (EC50) in normal rats; type: in vivo; conditions: Rattus norvegicus, same PK/PD analysis
Source text: (§1) EC50 value in patient with renal failure was estimated based on the calculated EC50 value in healthy adults and the results from the same analysis in normal rats and adenine-treated rat models (pathological rat models). […] Since the difference in the EC50 value between rats in normal state and pathological state is presumed to be caused by the changes in PK that are considered to greatly vary between normal state and pathological state, similar tendency is expected in human as well.

[1] = system: patients with renal failure; assay: Estimation of EC50, PK and clinically effective dose in patients with renal failure; set-up: species or system human; conditions: scaling factor applied to healthy adult EC50
Source text: as §1
The result from PK fitting, and the contribution rate of renal elimination of the drug (3.2%) calculated using PK-sim (registered trademark) were used to simulate PK prediction in the patients with renal failure. […] As a result, administration of a dose of 0.06 mg/man was estimated to maintain a concentration higher than 1.4 ng/ml for 72 hours (FIG. 8).

[2] = system: adenine-treated rat models; assay: PK/PD analysis (EC50) in adenine-treated rat models; type: in vivo; conditions: adenine-treated rat models (pathological rat models), same PK/PD analysis
Source text: as §1

[3] = system: healthy Japanese male adults; assay: Phase I clinical trial (P1), single intravenous dose; type: in vivo, human
Experimental: Thirty-two healthy Japanese male adults were given a single intravenous dose of the test drug (Compound A1) at 0.01 mg, 0.1 mg, 1.0 mg or 2.5 mg in a fasted state to study the pharmacokinetics, pharmacodynamics and safety by a double-blind test using a placebo as a control. Here, the trial drug was administered by diluting a required dose taken from the Compound A1 vial formulation prepared as follows with sterilized water for injection, and filling a syringe with the resultant in accordance with the dose to be administered.
A vial formulation encapsulating 100 mg of Compound A1 in terms of a dehydrate, and sodium chloride, disodium hydrogen phosphate dodecahydrate and sodium dihydrogen phosphate dihydrate as additives in 10 ml of sterilized water for injection

[4] = Emetogenicity in dogs (crossover, intravenous bolus); conditions: male, beagle, dog, in vivo, 1 mg/kg (no vomiting case)
Experimental: A crossover trial was conducted with male beagles (Nosan Beagle, 14-87-month-old, weight: 10.2 kg-15.8 kg). The Compound A1 solutions used in Example 2 were given at 0.3, 1 and 10 mg/kg by bolus administration (0.5 mL/kg, 1 mL/sec) to 3-6 dogs per dose to confirm the manifestation of vomiting immediately after the administration. Administration was conducted once or twice a week with a 2-day interval. Administration was conducted prior to feeding. Symptoms prior to, immediately after, and 15 and 30 minutes after the administration were observed.

[5] = PK/PD analysis of P1 (three-compartment model, indirect response model incorporating rebound); type: in vivo, human; conditions: male, human, plasma, intravenous
Experimental: (§2) A PK/PD analysis was conducted to estimate the clinically effective dose based on the results from P1. The dose of 2.5 mg seemed to be excessive and thus was eliminated from the analysis. PK (mean plasma concentration) and PD (mean iPTH level normalized by the levels of the placebo group and the 0-hour level) data of the doses of 0.01 mg, 0.1 mg and 1 mg were used. An indirect response model incorporating rebound was used for the PK/PD analysis.
(§3) Based on the results of PK of the three given doses (0.01 mg, 0.1 mg and 1 mg) in P1, the three given doses were simultaneously analyzed using a three-compartment model to calculate the PK parameters (FIG. 5 and Table 2).
(§4) Using the calculated PK parameters as an input function, PK/PD analysis was performed using an indirect response model incorporating rebound (FIG. 6) to calculate the EC50 value in healthy adults (FIG. 7 and Table 3).

healthy adults = assay: as above; type: in vivo, human; conditions: Homo sapiens; iPTH decrease, healthy adults, indirect response model incorporating rebound; ± standard error
Experimental: as §2, §3, §4

in vivo = conditions: Crl:CD(SD), rat, iv, 30 mg/kg
Experimental: The mean±standard error of the serum iPTH concentrations of all individuals prior to the administration (0 hour) was 231±16 pg/ml.
Logistic curve fitting was conducted to establish the response relationship between the serum iPTH concentration 48 hours after the administration and the given dose.

normal rat = assay: Non-clinical studies of excretion and elimination; type: in vivo
Source text: Compound A1 is a CaSR activator used for intravenous administration.

[6] = system: SHPT patients on maintenance hemodialysis; assay: Phase I/II clinical trial, repeated intravenous administration; type: in vivo, human
Experimental: (§5) Targeting SHPT patients on maintenance hemodialysis, pharmacokinetics, pharmacodynamics and safety upon single or repeated intravenous administration of Compound A1 were examined by conducting a double-blind test using a placebo as a control.
Repeated administration: Based on the clinically effective dose calculated in Example 5, the doses were given in 3 steps, namely, 0.05 mg, 0.1 mg and 0.2 mg. The trial drug was (intravenously) infused from the venous side of the dialysis circuit before the end of dialysis three times a week for 22 days (total of 9 times) starting from the first day of administration of the trial drug. Here, the trial drug was administered by diluting a required dose taken from the Compound A1 vial formulation prepared as follows with sterilized water for injection, and filling a syringe with the resultant in accordance with the dose to be administered.
(§6) Each item was evaluated according to the predetermined evaluation schedule.
(§7) A vial formulation encapsulating 1 mg of Compound A1 in terms of a dehydrate, and sodium chloride, disodium hydrogen phosphate dodecahydrate and sodium dihydrogen phosphate dihydrate as additives in 10 ml of sterilized water for injection

[7] = system: bilaterally nephrectomized rats; assay: Survival of bilaterally nephrectomized rats after single doses; type: in vivo, rat; conditions: five rats per group
Source text: After quarantine and acclimatization periods of 6 days, fifty-one 7-week-old rats (Crl: CD (SD), male) were fed a 100% sucrose diet ad libitum from four days before the surgery. On the day of the surgery, skin incisions were made on the back at the sites of the right and left kidneys under isoflurane anesthesia and the renal capsules were removed to ligate the renal arteries and veins and the ureters using threads before removing the right and left kidneys. A penicillin solution was given upon suturing, and 5 mL of physiological saline was intraperitoneally administered before returning the rats into the breeding cages.
On a day after the bilaterally nephrectomy, the given doses were calculated based on the weight of the selected animals on that day. Group 1 was given a medium (physiological saline), Groups 2, 3 and 4 were given the Compound A1 solution (0.3, 3 and 30 mg/mL, respectively), and Groups 5, 6, 7 and 8 (5 rats per group) were given the comparative compound (0.3, 1, 3 and 10 mg/mL, respectively), each given a single dose of 1 ml/kg from the tail vein. Prior to the administration (0 hour), and 24 and 48 hours after the administration, approximately 300 μL of blood was collected without anesthesia from the tail vein using capillary tubes for obtaining the serum. The blood for obtaining the serum was left to stand at room temperature, and centrifuged in a high speed refrigerated microcentrifuge (10000 rpm, 5 min, 4° C.) within a period of 30 minutes to 2 hours after the blood collection to collect the serum.
The number of rats in each group was five prior to the administration.

[8] = system: SHPT patients on maintenance hemodialysis; assay: Phase I/II clinical trial, single intravenous administration; type: in vivo, human
Experimental: as §5
(§8) Single administration: Based on the clinically effective dose calculated in Example 5, the doses were given at 0.025 mg, 0.05 mg, 0.1 mg, 0.2 mg, 0.4 mg, 0.6 mg and 0.8 mg (7 steps). On the day of trial drug administration, the trial drug was intravenously administered as slow as possible within 60 seconds 2 to 4 hours following the end of dialysis. Here, the trial drug was administered by diluting a required dose taken from the Compound A1 vial formulation prepared as follows with sterilized water for injection, and filling a syringe with the resultant in accordance with the dose to be administered.
as §6, §7

[9] = as above; type: in vivo, human; conditions: human, plasma, iv; single i.v. 0.025-0.8 mg; read-out: t½
Experimental: as §5, §8, §6, §7

SMILES: Cc1c(Cl)cc(S(=O)(=O)[O-])cc1NC(=O)NC[C@H](N)C(=O)O.[Na+] [Compound A1, sodium 3-{[(2S)-2-amino-2-carboxyethyl]carbamoylamino}-5-chloro-4-methylbenzenesulfonate]
- EC50 (normal rats): < 0.0229 µg/mL
- EC50 value estimated in the patients with renal failure [1]: > 0.0014 µg/mL
- EC50 [2]: 0.0748 µg/mL
- elimination from plasma ([3]; single i.v. 0.01, 0.1, 1.0 and 2.5 mg): rapidly eliminated
- safety (side effects) ([3]; single i.v. dose): non-severe and mild side effects such as vomiting were observed in the 1.0 mg and higher dose groups
- serum iPTH concentration compared to before the administration ([3]; single i.v. dose): decreased in the 0.01 mg and higher dose groups
- excretion into the urine ([3]; with respect to the given dose): excreted into the urine mostly as unchanged substances
- C0 [4]: 18.8 µM
- Vd ([5]; three-compartment model, doses 0.01, 0.1, 1 mg, ± standard error): 0.0909 ± 0.0114 L/kg
- C0 ([5]; assumed effective dose 0.1 mg/man, from simultaneous fitting of all doses): 0.0436 µM
- EC50 (healthy adults): 0.000421 ± 0.000167 µg/mL
- concentration at 48 h (in vivo): 18800 ng/mL
- elimination from the plasma (normal rat; intravenously administered to a normal rat): rapidly eliminated from the plasma
- main route of excretion (normal rat; non-clinical studies): renal excretion is the main route of excretion
- accumulating property [6]: has not no accumulating property
- trough concentration in plasma before the dialysis following the longest interval [6]: generally constant
- maintenance of serum iPTH lowering effect ([6]; test period): maintained its effect with repeated administration
- form present in the plasma ([6]; three times a week for 22 days): present mainly as an unchanged substance
- survival 48 hours after the administration ([7]; all administered groups (0.3, 3 and 30 mg/kg)): all five rats survived
- lowering of plasma concentration immediately after dialysis vs just before the dialysis ([8]; hemodialysis performed 66 hours after the administration): 75-81%
- nausea observed (non-severe and mild) ([8]; single administration): in the 0.6 mg and higher dose groups
- vomiting observed (non-severe and mild) ([8]; single administration): in the 0.4 mg and higher dose groups
- duration of serum iPTH lowering effect after the administration ([8]; single administration, until just before the dialysis): up to 66 hours
- half-life [9]: 65 to 122 h

SMILES: CC(=O)N[C@H](CSSC[C@H](N)C(=O)O)C(=O)N[C@H](C)C(=O)N[C@H](CCCNC(=N)N)C(=O)N[C@H](CCCNC(=N)N)C(=O)N[C@H](CCCNC(=N)N)C(=O)N[C@H](C)C(=O)N[C@H](CCCNC(=N)N)C(N)=O [comparative compound, etelcalcetide (Ac-c(C) arrrar-NH2) TFA salt]
- survival 48 hours after the administration ([7]; 3 mg/kg group): four survived
- survival 48 hours after the administration ([7]; 10 mg/kg group): one survived
